The values that follow come from article PMC6062912, “The Evolutionary Conserved γ-Core Motif Influences the Anti-Candida Activity of the Penicillium chrysogenum Antifungal Protein PAF” (Frontiers in Microbiology, 2018).

Values after ≈ are worked out from the molar mass of the structure shown. Read-outs that look alike come from different tables or passages of the source. Residues, ends and D or L forms follow the SMILES beside them.

Common to all, as to format: cell-based, Candida albicans
Test [1] relates to C. albicans. Particulars: 10 min exposure, mean ± SD, untreated control 1.8 ± 1.2%. The procedure: (§1) To analyze changes in cell size and to assess kinetics of cell death of C. albicans upon antifungal treatment flow cytometry was applied. For both experiments, 10^4 cells mL^-1 was incubated in 0.05× PDB with the desired AMP concentration for different time points. The incubation was performed in 1.5 mL reaction tubes at 30°C under continuous shaking at 800 rpm in a Thermomixer Comfort (Eppendorf). After incubation, the cells were centrifuged at 4°C with 3,000 ×g for 3 min. For cell size determination, the supernatant was removed and the cells were resuspended and fixed in PBS containing 3.7% (v/v) formaldehyde before changes in cell size were measured by plotting SSC against FSC. C. albicans that were incubated at 95°C for 120 min served as controls. Microscopic control-images were taken with a fluorescence microscope (Axioplan, Zeiss), equipped with a camera (Axiocam 503 mono, Zeiss) and excitation/emission filters (365/420 nm for blue fluorescence and 546/590 or 565/620 nm for red fluorescence, Zeiss). Image acquisition was performed with ZEN 2 microscope software (Zeiss, blue edition) and the cell area was measured with ImageJ 1.52d software ([Schindelin et al., 2012]).
For dead-cell staining, prior to fixation, the cells were incubated in the dark for 30 min at 4°C with 100 μL PBS containing 0.1 μL LIVE/DEAD^TM Fixable Far Red Dead Cell Stain (Thermo Fisher Scientific). The cells were then washed once in PBS and fixed in PBS containing 3.7% formaldehyde. Ethanol-inactivated dead C. albicans served as a positive staining control. The samples were then analyzed by FACS (FACSVerse Flow Cytometer, BD Biosciences), equipped with BD FACSuite software (v1.0.6.5230, BD Biosciences). Dead cells were detected at Excitation/Emission wavelength of 650/665 nm. Stained, live, and dead Candida cells were used as controls to discriminate populations and to set the gates.
To elucidate the AMPs candidacidal activities at an early stage and to compare their time and dose-dependent cell killing in more detail, fluorescence activated cell sorting (FACS) analysis with dead-cell staining was applied. To this end, C. albicans was exposed to 1× and 2× MIC of the respective AMPs for 10 min, stained with the dead-cell marker, and fixed with formaldehyde. With FACS analyses, 1.8 ± 1.2% dead cells were detected in the untreated control (Figure 3).

Test [2] concerns C. albicans. Kind of test: Cell size reduction (FSC) by flow cytometry. Particulars: 2× MIC, mean ± SD. The method, then: as §1
Cell shrinkage of C. albicans is a sign for cell death when exposed to AMPs ([Lee et al., 2017]). We therefore analyzed the changes in size of AMP-treated C. albicans cells by recording the FSC with flow cytometry. To this end, C. albicans cells were analyzed after 10 and 30 min of exposure to 1× MIC and 2× MIC of AMPs (Figure 5). Heat-killed and untreated C. albicans cells served as positive and negative controls, respectively (Supplementary Figure S8). […] Pγ^var and Pγ^opt caused a very prominent decrease in the FSC value compared to the untreated cell population when applied at 2× MIC. Pγ^var and Pγ^opt reduced the average cell size after a 10-min treatment by 28 ± 13 (P = 0.022) and 18 ± 10% (P = 0.041), respectively, and after 30 min the cell size was reduced by 48 ± 8 (P < 0.001) and 37 ± 12% (P = 0.007), respectively.
For orientation: Flow cytometry measures light scatter and fluorescence of single cells or particles in a stream.

In test [3] the test system is C. albicans. To be noted: 24 h. The procedure: Fungal strains used in this study are listed in Supplementary Table S1 and composition of growth media is given in Supplementary Table S2. All P. chrysogenum shaking cultures were inoculated with 2 × 10^8 conidia, in 200 mL defined minimal medium (PcMM) for protein expression or complete medium (CM) before transformation, and grown at 25°C as described ([Sonderegger et al., 2016]). For conidial suspension generation from surface cultures, P. chrysogenum was grown on PcMM agar at 25°C. C. albicans was used as PAF-sensitive model organism and was cultivated on yeast extract peptone dextrose (YPD) agar at 37°C. For growth inhibition and susceptibility assays, C. albicans was grown in 20-fold diluted potato dextrose broth (PDB, Sigma-Aldrich) at 30°C, pH 5.5 ([Huber et al., 2018]).
The MIC of all protein and peptide variants was determined on C. albicans with broth microdilution assays in 96-well microtiter plates (Nunclon Delta, Thermo Fisher Scientific). From a fresh C. albicans overnight culture on YPD agar, cells were harvested with an inoculation loop and suspended in 0.05× PDB (Sigma-Aldrich) ([Arendrup et al., 2016]). The cell number was determined with a counting chamber (Bürker) and the cell number was adjusted to 10^4 mL^-1. In each well, 10^3 cells were incubated with increasing concentrations of antifungal proteins or peptides in a final volume of 200 μL 0.05× PDB. The plates were incubated for 24 h at 30°C before the growth was determined by measuring the optical density (OD620nm) with a multi-mode microplate reader (FLUOstar Omega, BMG Labtech). The MIC was defined as the protein concentration that inhibited growth by ≥90% compared to the untreated control, which was referred as 100% growth.

As for `CC(=O)N[C@@H](CCCCN)C(=O)N[C@@H](Cc1ccc(O)cc1)C(=O)N[C@H](C(=O)NCC(=O)N[C@@H](CCCCN)C(=O)N[C@@H](CS)C(=O)N[C@@H](CCCCN)C(=O)N[C@H](C(=O)N[C@@H](CCCCN)C(=O)N[C@@H](CCCCN)C(=O)N[C@@H](CC(N)=O)C(=O)N[C@@H](CCCCN)C(=O)N[C@@H](CS)C(=O)N[C@@H](CCCCN)C(N)=O)[C@@H](C)O)[C@@H](C)O` [Pγ^opt] (Ac-KYTGKCKTKKNKCK-NH2), the “dead cells (cells killed), FACS dead-cell staining” value with C. albicans [1] (1× MIC) is 11.7 ± 0.3%; with C. albicans [1] (2× MIC), 27.4 ± 1.3%. For the same molecule, the “cell size reduction (change in FSC vs untreated cells)” value stood at 18 ± 10% in the test on C. albicans [2] (10 min) and 37 ± 12% in the test with C. albicans [2] (30 min).

Take `CC(=O)N[C@@H](CCCCN)C(=O)N[C@@H](Cc1ccc(O)cc1)C(=O)N[C@H](C(=O)NCC(=O)N[C@@H](CCCCN)C(=O)N[C@@H](CS)C(=O)N[C@@H](Cc1ccc(O)cc1)C(=O)N[C@@H](CCCCN)C(=O)N[C@@H](CCCCN)C(=O)N[C@@H](CCCCN)C(=O)N[C@@H](CC(N)=O)C(=O)N[C@@H](CCC(=O)O)C(=O)N[C@@H](CS)C(=O)N[C@@H](CCCCN)C(N)=O)[C@@H](C)O` [Pγ^var] (Ac-KYTGKCYKKKNECK-NH2): the MIC (commonly the lowest concentration that inhibits growth of the organism) in the test on C. albicans [3] amounted to 2.5 µM (≈ 4.41 µg/mL). The “dead cells (cells killed), FACS dead-cell staining” value with C. albicans [1] (1× MIC) came to 13.2 ± 3.2%; in the test on C. albicans [1] (2× MIC), 27.1 ± 5.6%. Further, the entries for the “cell size reduction (change in FSC vs untreated cells)” value in the test with C. albicans [2] (10 min) and in the test on C. albicans [2] (30 min) were 28 ± 13% and 48 ± 8%, respectively.
